Data on eleven molecules can be found in ChEMBL document CHEMBL1201862, “PubChem BioAssay data set” (2004).

What all share (experiment): DTP human tumour cell line panel, 48 h
Assay [1] concerns EKVX.
For assay [2], the system named is HCT-116.
The test system of assay [3] is HOP-92.
Assay [4] deals with LOX IMVI.
Assay [5] has as its system Malme-3M.
Assay [6] relates to NCI-H460.
For assay [7], the system named is OVCAR-4.
Assay [8] deals with OVCAR-5.
Assay [9] relates to OVCAR-8.
In assay [10] the test system is PC-3.
The subject of assay [11] is RPMI-8226.
The subject of assay [12] is RXF 393.
In assay [13] the test system is SF-268.
For assay [14], the system named is SK-MEL-5.
The test system of assay [15] is SNB-19.
Assay [16] has as its system SW-620.
Assay [17] concerns UO-31.
For assay [18], the system named is HOP-62.

A word on the GI50: it is the concentration that inhibits growth by half.

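Five concentrations, 48 hours, 96-well plates. At the GI50, growth is halved.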 Calls of active or inactive are those of the source. Cut-off read from the data, not from the text of the source: active = GI50 up to about 1.1 µM and inactive = higher.

For `Cc1ccc(OCC2OC(n3cnc4c(Cl)nc(Nc5cc(Cl)cc(Cl)c5)nc43)CC2Oc2ccc(C)cc2)cc1` (configuration not stated), the GI50 in assay [1], in assay [2], in assay [3], in assay [4], in assay [5] and in assay [6] was > 100 µM (inactive) throughout. Also, the GI50 was 10.4 µM (inactive) in assay [7]; > 100 µM (inactive) in assay [8]; > 100 µM (inactive) in assay [9]; > 100 µM (inactive) in assay [10]; > 100 µM (inactive) in assay [11]; > 100 µM (inactive) in assay [12]. The GI50 in assay [13], in [14], in [15], in assay [16] and in assay [17] was > 100 µM (inactive) throughout.

Consider `CCOC(=O)c1sc2c(c1OC(=O)c1ccco1)c(=O)n(-c1ccccc1)c(=S)n2-c1ccccc1`, for which the GI50 in assay [1] was 21.3 µM (inactive); in assay [2], 29.7 µM (inactive); in assay [18], 32.1 µM (inactive); in assay [3], 30.2 µM (inactive); in assay [4], 25.6 µM (inactive); in [5], 15.8 µM (inactive). Further, the GI50 in [6] was 17.7 µM (inactive); in assay [7] it was 26.8 µM (inactive); in assay [8] it was > 100 µM (inactive); in assay [9], 26.1 µM (inactive); in assay [10], 21.4 µM (inactive); in [11] it was 30.6 µM (inactive). The GI50 was 22.1 µM (inactive) in assay [12]; 46.1 µM (inactive) in assay [13]; 15.8 µM (inactive) in [14]; 33.2 µM (inactive) in assay [15]; 42.1 µM (inactive) in [16]; 1.04 µM (active) in [17].

Turning to `CCN(CC)CCNc1ccc([N+](=O)[O-])c2nc3ccc(OC)cc3c(N)c12`, the GI50 in [1] was 1.7 µM (inactive); in assay [2], 0.151 µM (active); in [18], 1.7 µM (inactive); in assay [3] it was 1.34 µM (inactive); in assay [4] it was 0.172 µM (active); in assay [5], 1.78 µM (inactive). Besides, the GI50 in assay [6] was 1.22 µM (inactive); in [7], 1.22 µM (inactive); in [8] it was 1.7 µM (inactive); in assay [9], 1.47 µM (inactive); in assay [10] it was 1.36 µM (inactive); in assay [11] it was 0.243 µM (active). For the same molecule, the GI50 in assay [12] is 1.16 µM (inactive); in assay [13], 1.65 µM (inactive); in assay [14], 0.811 µM (active); in assay [15] it was 1.67 µM (inactive); in [16], 0.191 µM (active); in [17], 1.67 µM (inactive).

With `S=C(N/N=C\C(=N/NC(=S)N1CCCCC1)c1ccccc1)N1CCCCC1`, the GI50 in assay [1] was 1.97 µM (inactive); in assay [2], 2.3 µM (inactive); in [18] it was 2.43 µM (inactive); in assay [3], 2.38 µM (inactive); in assay [4], 3.33 µM (inactive); in assay [5] it was 1.91 µM (inactive). The GI50 was 2.14 µM (inactive) in [6]; 1.76 µM (inactive) in assay [7]; 1.88 µM (inactive) in assay [8]; 1.92 µM (inactive) in assay [10]; 46.1 µM (inactive) in [11]; 1.85 µM (inactive) in assay [12]. The GI50 in assay [13] was 1.99 µM (inactive); in [14], 1.77 µM (inactive); in assay [15], 1.9 µM (inactive); in assay [16] it was 2 µM (inactive); in [17], 1.74 µM (inactive).

Consider `Cc1nn2c(=O)c([N+](=O)[O-])c(/C=C/c3ccco3)nc2s1`, for which the GI50 in assay [1] is 26.4 µM (inactive); in [2], 36.3 µM (inactive); in assay [18] it was > 100 µM (inactive); in assay [3], 36.2 µM (inactive); in assay [4], 17.6 µM (inactive); in [5] it was 68.9 µM (inactive). The GI50 in assay [6] was 36.2 µM (inactive); in assay [7], > 100 µM (inactive); in assay [8], 73.1 µM (inactive); in assay [9] it was 32.7 µM (inactive); in assay [10] it was 68.2 µM (inactive); in assay [11], 36.7 µM (inactive). Besides, the GI50 in [12] was 28.7 µM (inactive); in [13], 36.4 µM (inactive); in assay [14], 25.9 µM (inactive); in [15], 59 µM (inactive); in assay [16], 48.2 µM (inactive); in assay [17], 58.7 µM (inactive).

As for `Cn1c(=O)c2ccccc2[n+]2c(-c3cccc([N+](=O)[O-])c3)csc12`, the GI50 was 25.2 µM (inactive) in [1]; 67.5 µM (inactive) in assay [2]; 21.2 µM (inactive) in assay [18]; > 100 µM (inactive) in assay [3]; > 100 µM (inactive) in assay [4]; > 100 µM (inactive) in [5]. In addition, the GI50 is 36.7 µM (inactive) in [6]; > 100 µM (inactive) in assay [7]; > 100 µM (inactive) in assay [8]; 18 µM (inactive) in [9]; 50.5 µM (inactive) in [10]; 28.1 µM (inactive) in assay [11]. The GI50 in assay [12] is 43.4 µM (inactive); in assay [13], 26.5 µM (inactive); in [14] it was 59.7 µM (inactive); in assay [15], > 100 µM (inactive); in assay [16], > 100 µM (inactive); in [17] it was > 100 µM (inactive).

Consider `O=C1C(NCCN2CCOCC2)=C(Cl)C(=O)c2ncccc21`, for which the GI50 was 1.48 µM (inactive) in assay [1]; 0.348 µM (active) in assay [2]; 1.6 µM (inactive) in [18]; 2.08 µM (inactive) in assay [3]; 0.168 µM (active) in [4]; 0.564 µM (active) in [5]. Besides, the GI50 was 0.445 µM (active) in assay [6]; 1.7 µM (inactive) in assay [8]; 0.377 µM (active) in assay [9]; 0.289 µM (active) in assay [10]; 0.1 µM (active) in [11]; 0.327 µM (active) in assay [12]. The GI50 in assay [13] was 1.52 µM (inactive); in [14], 0.312 µM (active); in assay [15], 1.42 µM (inactive); in [16], 0.105 µM (active); in [17], 1.12 µM (active).

For the molecule `O=C1CCCC2(c3ccccc3)Nc3ccccc3N12` (configuration not stated), the GI50 in assay [1], in assay [2], in assay [18], in [3], in assay [4] and in assay [5] was > 100 µM (inactive) throughout. Further, the GI50 in [6] was 78.5 µM (inactive); in assay [7] it was > 100 µM (inactive); in [8], > 100 µM (inactive); in assay [9] it was > 100 µM (inactive); in assay [10], > 100 µM (inactive); in assay [11], > 100 µM (inactive). Further, the GI50 in assay [12], in assay [13], in assay [14], in assay [15], in assay [16] and in [17] was > 100 µM (inactive) each time.

On to `COc1ccc(/C=C2/NC(=S)N=C2Cl)cc1`, for which the GI50 in [1], in assay [2], in assay [18], in assay [3], in [4] and in assay [5] was > 100 µM (inactive) in each case. The GI50 in assay [7] is > 100 µM (inactive); in assay [8] it was 21.5 µM (inactive); in assay [9], > 100 µM (inactive); in [10], > 100 µM (inactive); in assay [11], > 100 µM (inactive); in [12] it was > 100 µM (inactive). In addition, the GI50 in assay [13], in [14], in [15], in assay [16] and in [17] was > 100 µM (inactive) in each case.

In the case of `CN(C)CCNS(=O)(=O)N(C)C`, the GI50 in assay [1], in assay [2], in assay [18], in assay [3], in [4] and in [5] was > 100 µM (inactive) throughout. Moreover, the GI50 in [6], in [7], in assay [8], in assay [9], in assay [10] and in [11] was > 100 µM (inactive) in each case. In addition, the GI50 in assay [12], in [13], in [14], in assay [15] and in assay [16] was > 100 µM (inactive) throughout.

Turning to `Cc1ccc(CC[PH](=O)CCc2ccc(C)nc2)cn1`, the GI50 in assay [1], in [2], in assay [18], in assay [3], in [4] and in assay [5] was > 100 µM (inactive) each time. Moreover, the GI50 in assay [6], in [7], in assay [8], in [9], in assay [10] and in assay [11] was > 100 µM (inactive) throughout. In addition, the GI50 in assay [12], in assay [13], in [14], in assay [15] and in assay [16] was > 100 µM (inactive) throughout.
